Measured values from patent US8921516B2, “Synthetic, defined fibronectin mimetic peptides and surfaces modified with the same” (Corning Incorporated, priority 2010, dated 2014).

Key:
[1] = test system: A-172 human glioblastoma cancer cells; assay: A-172 cell attachment to peptide coated surfaces (images and MTS assay); format: cell-based; conditions: A-172 cells, images and MTS assay (FIG. 4A and FIG. 4B); compared with BD BioCoat fibronectin surface
Experimental: FIG. 4A is an image of A-172 human glioblastoma cancer cells attached to a surface that has a coating thereon of […] (SEQ ID NO: 8) referred to therein as “DA2”, […] (SEQ ID NO: 9) referred to therein as “DA4”, […] (SEQ ID NO: 10) referred to therein as “DA1”, […] (SEQ ID NO: 11) referred to therein as “DA3”.
To explore the ability of a surface modified by the compound of the present invention to mimic one or more functional characteristics of a fibronectin coated surface, cells were seeded and monitored on both such surfaces under the same culture conditions. In brief, LNCaP cells, MIA-PaCa-2, A-172, or RKO cells from ATCC were cultured according to supplier's instructions. LNCaP were cultured in RPMI-1640 Medium (ATCC Catalog No. 30-2001) supplemented with 10% fetal bovine serum. MIA-PaCa-2 and A-172 cells were grown in DMEM (Invitrogen cat #11885-084) supplemented with 10% fetal bovine serum. RKO cells were cultured in EMEM (ATCC cat#30-2003) supplemented with 10% fetal bovine serum. Cells were cultured at 37° C. in a humidified incubator with 5% CO2. For seeding, media was removed, cells were washed with PBS, and 3 ml of 0.25% Trypsin-EDTA was added to the cells in T-75 flask. Flasks were examined under the microscope, once cells detached from the surface, 10 ml culture media was added to neutralize Trypsin. Cells were transferred to a 15 ml. BD Falcon tube and centrifuged at 200×g for 10 min. Supernatant was removed and the cell pellet washed once with DMEM (Invitrogen cat #11885-084) having 200 microgram/ml BSA. Cells were resuspended in DMEM having 200 microgram/ml BSA and seeded at 50,000 cells/cm^2 in 1.0 ml media per well of a 24 well plate. The culture surface was either a surface modified by the compound […] (SEQ ID NO: 7) or BD BioCoat fibronectin which served as a positive control. Additionally, BD tissue culture treated surface served as negative control. Cells were incubated for 24 hr at 37° C. in a humidified incubator with 5% CO2.
In addition to the aforementioned visual analysis, MTS analysis was carried out to quantify the degree of cell attachment. In brief, media was removed by inverting the plate and 300 μl complete media containing MTS (Promega cat #G3582) was added to each well of a 24 well plate. Cells were incubated for 1 hr at 37° C. in a humidified incubator at 5% CO2. Following incubation, 0.1 ml media was transferred to BD Falcon™ 96 well plate and absorbance was measured at 490 nm.

LNCaP cells [2] = assay: LNCaP cell attachment and spreading on modified surface, visualized by microscope; format: cell-based, human; conditions: 24 hr post-seeding, microscope images (FIG. 1), surface modified by compound vs BD BioCoat fibronectin
Experimental: (§1) To explore the ability of a surface modified by the compound of the present invention to mimic one or more functional characteristics of a fibronectin coated surface, cells were seeded and monitored on both such surfaces under the same culture conditions. In brief, LNCaP cells, MIA-PaCa-2, A-172, or RKO cells from ATCC were cultured according to supplier's instructions. LNCaP were cultured in RPMI-1640 Medium (ATCC Catalog No. 30-2001) supplemented with 10% fetal bovine serum. MIA-PaCa-2 and A-172 cells were grown in DMEM (Invitrogen cat #11885-084) supplemented with 10% fetal bovine serum. RKO cells were cultured in EMEM (ATCC cat#30-2003) supplemented with 10% fetal bovine serum. Cells were cultured at 37° C. in a humidified incubator with 5% CO2. For seeding, media was removed, cells were washed with PBS, and 3 ml of 0.25% Trypsin-EDTA was added to the cells in T-75 flask. Flasks were examined under the microscope, once cells detached from the surface, 10 ml culture media was added to neutralize Trypsin. Cells were transferred to a 15 ml. BD Falcon tube and centrifuged at 200×g for 10 min. Supernatant was removed and the cell pellet washed once with DMEM (Invitrogen cat #11885-084) having 200 microgram/ml BSA. Cells were resuspended in DMEM having 200 microgram/ml BSA and seeded at 50,000 cells/cm^2 in 1.0 ml media per well of a 24 well plate. […]

LNCaP cells [3] = assay: MTS assay quantification of LNCaP cell attachment; format: cell-based, human; conditions: 24 hr post-seeding, FIG. 2, treated surface vs BD BioCoat fibronectin
Experimental: as §1, with “min.” for “min. Supernatant was removed and the cell pellet washed once with DMEM (Invitrogen cat #11885-084) having 200 microgram/ml BSA. Cells were resuspended in DMEM having 200 microgram/ml BSA and seeded at 50,000 cells/cm^2 in 1.0 ml media per well of a 24 well plate.”
In addition to the aforementioned visual analysis, MTS analysis was carried out to quantify the degree of cell attachment. […] Following incubation, 0.1 ml media was transferred to BD Falcon™ 96 well plate and absorbance was measured at 490 nm.

A-172 cells = assay: Confluence quantification by IncuCyte of A-172 cell attachment; format: cell-based, human; conditions: FIG. 3, treated surface vs BD BioCoat fibronectin
Experimental: as §1

RKO cells = assay: Confluence quantification by IncuCyte of RKO cell attachment; format: cell-based, human; conditions: FIG. 3, treated surface vs BD BioCoat fibronectin
Experimental: as §1

Row | Sequence | cell attachment and spreading [1] | also measured
1 | KSGRPREDRVPHSRNSITLTNGGGSGGGSGGGRGDSP (two regions of a fibronectin cell-binding domain joined by a flexible linker) [SEQ ID NO: 9] | supported cell attachment and spreading similar to a BD BioCoat fibronectin surface | 
2 | KSGRPREDRVPHSRNSITLTNSGTGSGTGSGRGDSP (two regions of a fibronectin cell-binding domain joined by a flexible linker) [SEQ ID NO: 8] | supported cell attachment and spreading similar to a BD BioCoat fibronectin surface | 
3 | KSGRPREDRVPHSRNSITLTNSGSGSGSGSGRGDSP (two regions of a fibronectin cell-binding domain joined by a flexible linker) [SEQ ID NO: 7] | supported cell attachment and spreading similar to a BD BioCoat fibronectin surface | cell attachment and spreading (LNCaP cells [2]): comparable; LNCaP cell attachment (MTS assay, absorbance at 490 nm) (LNCaP cells [3]): comparable; confluence quantification by IncuCyte (A-172 cells): comparable; confluence quantification by IncuCyte (RKO cells): comparable
4 | KSGRARADRVPHSRNTITLTNGGSGGSGGSGRGDSP (two regions of a fibronectin cell-binding domain joined by a flexible linker) [SEQ ID NO: 11] | supported cell attachment and spreading similar to a BD BioCoat fibronectin surface | 
5 | KSGRARADRVPHSRNTITLTNSGSGSGSGSGRGDSP (two regions of a fibronectin cell-binding domain joined by a flexible linker) [SEQ ID NO: 10] | supported cell attachment and spreading similar to a BD BioCoat fibronectin surface | 
6 | KSGRGRGDRVPHSRNGITLTNSGSGSGSGSGRGDSP (two regions of a fibronectin cell-binding domain joined by a flexible linker) [SEQ ID NO: 12] | supported cell attachment and spreading similar to a BD BioCoat fibronectin surface | 
